Values of other authors in patent US20180346488A1, “CYTOTOXIC BENZODIAZEPINE DERIVATIVES AND CONJUGATES THEREOF” (priority 2017, published 2018).

Settings: Phase I clinical evaluation; cited from earlier work

C=C1C[C@H]2C=Nc3cc(OCCCOc4cc5c(cc4OC)C(=O)N4CC(=C)C[C@H]4C=N5)c(OC)cc3C(=O)N2C1 [SJG-136]
DNA damage in circulating lymphocytes: noted at all doses | adverse effects noted: vascular leak syndrome, peripheral edema, liver toxicity and fatigue | maximum tolerated dose: 45 μg/m^2
